Square brackets hold non-standard residues; d marks the D form. Ends that are not written are not given here. pS = N[C@@H](COP(=O)(O)O)C(=O)O
How the values were obtained:
porcine ear skin [1] = experiment: In vitro skin penetration and transdermal delivery, porcine ear skin in Franz diffusion cell, spectrofluorimetry (Example 3); conditions: up to 8 hours post-application
Method: Fluorescence microscopy was used to visualize the peptides in different skin layers.
Formulations: Except in the experiments involving chemical penetration enhancers, FITC-labeled peptides were dissolved in phosphate-buffered saline (PBS, 10 mM, pH 7.2); the peptide concentration was 100 μM. In the experiment involving penetration enhancers, PBS could not be used as a solvent because of the lipophilic nature of monoolein and oleic acid. Propylene glycol was used as a solvent, since it solubilizes both lipids and peptides. […] The formulations were prepared by mixing monoolein or oleic acid with propylene glycol and adding the peptides to the system immediately thereafter.
Porcine ear skin was used as model skin for in vitro skin penetration studies because of its similarity with human skin, especially regarding histological and biochemical properties and permeability to drugs (33). Freshly excised porcine ears were obtained from a local abattoir. The skin from the outer surface of the ear was carefully dissected; making sure that the subcutaneous fat was maximally removed (34). Maximum care was taken to maintain the integrity of the skin, which was assured by histology. The cleaned porcine ear skin was immediately mounted in a Franz diffusion cell (diffusion area of 1 cm^2; Laboratory Glass Apparatus, Inc, Berkeley, Calif., USA), with the stratum corneum facing the donor compartment (where the formulation was applied) and the dermis facing the receptor compartment, which was filled with PBS (100 mM, pH 7.2, 3 mL). The receptor phase was maintained at 37° C. and under constant stirring. To achieve higher reproducibility, the skin samples were equilibrated to the diffusion cell conditions for 30 minutes before application of any formulation.
PBS solutions or propylene glycol formulations of the peptides (70 μL each) were applied to the skin surface (donor compartment). […] The concentrations of FITC-P20 (SEQ ID NO: 9), FITC-YARA-P20 (SEQ ID NO: 42), and FITC-TAT-P20 (SEQ ID NO: 43) in the skin and receptor phase were determined at 0.5, 1, 2, 4, and 8 hour post-application.
At the end of the experiment, skin surfaces were thoroughly washed with distilled water to remove excess formulation and carefully wiped with a tissue paper. To separate the stratum corneum (SC) from the remaining epidermis (E) and dermis (D), the skin was subjected to tape stripping. The skin was stripped with 15 pieces of adhesive tape (3M, St. Paul, Minn., USA), and the tapes containing the SC were immersed in 3 mL of a water:methanol (1:1 v/v) solution, vortexed for 2 min, and bath sonicated for 30 minutes. The remaining [E+D] was cut in small pieces, vortexed for 2 minutes in 2 mL of a water:methanol (1:1 v/v) solution, and homogenized using a tissue grinder for 1 minute and bath sonication for 30 minutes. The resulting mixture was centrifuged for 1 minute. The peptide present in the receptor phase was concentrated (10×) as follows. Samples (2 mL) of the receptor phase were lyophilized for 24 hours, and the residue was dissolved in 200 μL of a hidroalcoholic (20% of ethanol) solution.
All solutions were subjected to fluorimetry analysis using a Gemini SpectraMax™ platereader (Molecular Devices, Sunnyvale, Calif., USA) with excitation at 495 nm and emission at 518 nm. […] To evaluate the recovery of the peptides from the skin in the extraction procedure, tissues sections (1 cm^2) were spiked with 20 μL of 0.2 and 0.5 mM solutions of the peptides. The skin sections were homogenized using a tissue grinder, vortex-mixer, and bath sonicator, as described above. […] We accounted for such a recovery percentage in the quantification of peptides.

porcine ear skin [2] = experiment: Fluorescence microscopy of skin sections after peptide application; conditions: 4 hours post-application
Description: The skin sections (8 μm) were mounted on glass slides. The slides were visualized without any additional staining or treatment through a 20× objective using a Zeiss microscope (Carl Zeiss, Thornwood, N.Y., USA) equipped with a filter for FITC and AxioVision software.

[3] = test system: connective tissue growth factor (CTGF); experiment: TGFβ1-induced CTGF expression in human keloid fibroblasts (immunoblot); format: cell-based; conditions: 24 hours; for reduction of CTGF expression compared to TGFβ1 treatment: 50 μM peptide
Method: As a key marker of the anti-fibrotic activity of HSP20 peptides, we have previously examined expression levels of connective tissue growth factor (CTGF) in human keloid fibroblasts after stimulation with transforming growth factor beta 1 (TGFβ1). Cells were grown in 10 cm^2 dishes to 70% confluence in DMEM with 10% fetal bovine serum (FBS) and additional penicillin and streptomycin (1%), at 37° C. and 10% CO2. Cells were serum starved in DMEM containing 0.5% FBS for 48 hours before the experiment. Cells were either untreated (control) or treated with TGFβ1 (2.5 ng/mL) in the presence or absence of WL-P20 (SEQ ID NO: 10) phosphopeptide ([…]p[…], where pS is phosphoserine) (10 or 50 μM) for 24 hours. At the end of the experiment, cells were rinsed with PBS, and homogenized using urea-dithiothreitol-chaps (UDC) buffer. Lysates were mixed, centrifuged (6000×g) for 20 minutes, and the supernatant was used for determination of protein expression. Samples (20 μg of protein) were loaded on 15% SDS-PAGE gels, and the proteins were electrophoretically transferred to Immobilon membranes. Immunoblotting with CTGF antibodies was used in conjunction with near infrared detection antibodies to determine CTGF expression (Odyssey Li-Cor, Lincoln, Nebr.). Loading differences were corrected for by normalizing to GAPDH expression
(§1) Human keloid fibroblasts were serum-starved in DMEM medium containing 0.5% FBS for 48 hours, and treated with 2.5 ng/mL of TGF-betal for 24 hours and concomitantly treated with the WL-20 (SEQ ID NO: 10) (10 or 50 μM) for 24 hours. The Western blot bands were quantified by densitometry, and CTGF and collagen expression were related to GAPDH expression to correct for loading differences. The expression of CTGF and collagen in control cells was set to 1 for comparison of different blots.

Rat aorta = experiment: Vasorelaxation of rat aorta rings pre-contracted with KCl (muscle bath)
Method: Rat aorta was isolated and dissected free from connective and fat tissue. Transverse rings, 3.0 mm in width, were cut and tied to silk suture. The tissue was suspended in a muscle bath containing a bicarbonate buffer (120 mM NaCl, 4.7 mM KCl, 1.0 mM MgSO4, 1.0 mM NaH2PO4, 10 mM glucose, 1.5 mM CaCl2, and 25 mM […], pH 7.4) and equilibrated with 95% O2/5% CO2 at 37° C. The rings were fixed at one end to a stainless steel wire and attached to a force transducer in muscle perfusion system (Radnotti). The rings were then progressively stretched, and the isometric force generated in response to 110 mM KCl (with equimolar replacement of NaCl in bicarbonate buffer) was determined until the consistent maximal force was produced. Agonists and peptide was added directly to the baths. Tissue that was pre-contracted with 110 mM potassium chloride (KCl) followed by 1.0 mM WL-P20 ([…]p[…], pS is phosphoserine) (SEQ ID NO: 10), where pS is phosphoserine) relaxed compared to untreated control (13% relaxation at 10 minutes, 50% relaxation at 30 minutes, and maximum 88% relaxation at ˜60 minutes, FIG. 4). Percent relaxation was calculated relative to maximum force generated with KCl. […] Such a difference may result from different mechanisms of penetration and/or intracellular localization.

[4] = test system: primary rat astrocyte cells; experiment: Transduction across cell membranes in primary rat astrocyte cells; format: cell-based
Method: The in vitro model used to assess transduction across cell membranes was primary rat astrocyte cells. Cells were isolated as described (Innocenti et. al., J. Neurosci. 20:1800-1808, 2000), seeded at ˜3×10^4 cells/cm^2, and cultured in full serum (10% FBS in α-MEM) overnight. Some cells were serum starved by culturing in 0.5% FBS for 1-24 hours prior to treatment with transduction peptides.

vagina = conditions: 1 mM in K-Y Jelly, 4 hours
Method: (§2) Peptide was applied to both the vagina and anal canal using an applicator and allowed to penetrate for 4 hours. Tissue was excised and embedded in frozen tissue embedding medium (HistoPrep) for cryosectioning. Sections were mounted in anti-fade reagent and examined using fluorescence microscopy (Zeiss Axiovert).

anal canal = conditions: 1 mM in K-Y Jelly, 4 hours
Method: as §2

collagen = experiment: TGFβ1-induced collagen expression in human keloid fibroblasts (Western blot); format: cell-based; conditions: 10 or 50 μM, 24 hours
Method: as §1

porcine ear skin [5] = experiment: Ex vivo skin transduction, porcine ear skin in modified Franz diffusion cell (Example 2); format: in vitro ADME; conditions: 100 uM, conjugated or alone (FIG. 1, Panel C)
Method: The ex vivo model selected for skin transduction studies was freshly excised porcine ears. […] The system was maintained at 37° C. and under constant stirring. […] The amount of peptides that permeated across the skin was determined in the receptor phase; 1.5 mL of the receptor phase was withdrawn, lyophilized and the residue was suspended in 150 μL of water. […] Standard curves of the peptides were used as reference.

Substance | permeation across the skin, in words (porcine ear skin [1]) | localisation of fluorescence in skin layers (porcine ear skin [2]) | reduction of CTGF expression compared to TGFβ1 treatment [3] [%] | time of maximum relaxation (Rat aorta) [min] | maximum relaxation relative to maximum force generated with KCl (Rat aorta; 1.0 mM peptide, 110 mM KCl pre-contraction) [%] | relaxation relative to maximum force generated with KCl (Rat aorta; 1.0 mM peptide, 110 mM KCl pre-contraction, at 10 minutes) [%] | relaxation relative to maximum force generated with KCl (Rat aorta; 1.0 mM peptide, 110 mM KCl pre-contraction, at 30 minutes) [%] | time of maximal transduction [4] | transduction ([4]; 1 μM) | transduction ([4]; 25 μM) | transduction ([4]; 50 μM) | mucosal penetration in the vagina (vagina) | fluorescence in the anal canal (anal canal) | effect on TGFβ1-induced CTGF expression ([3]; 10 or 50 μM) | effect on TGFβ1-induced collagen expression (collagen) | skin penetration (porcine ear skin [5])
WLRRApSAPLPGLK (WLRRA[pS]APLPGLK; also: FITC label) [P20, fragment of HSP20, cargo peptide, pS is phosphoserine] | did not permeate across the skin at all | fluorescence was found only in the SC | 30 | – | – | – | – | – | – | – | – | – | – | – | – | –
WLRRIKAWLRRApSAPLPGLK (WLRRIKAWLRRA[pS]APLPGLK) [WL-P20] | – | – | 46 | ~60 | 88 | 13 | 50 | approximately 20 minutes | no transduction | slightly reduced transduction | efficient transduction | Mucosal penetration in the vagina was achieved | only minimal fluorescence | inhibits | inhibits | significantly enhanced

— US20100004165A1, “Novel Protein Transduction Domains and Uses Therefor” (The Arizona Board of Regents, a body corporate acting on …, priority 2005, published 2010)
